In patent publication US12187720B2, “Compounds for treatment of cancer” (ONCTERNAL THERAPEUTICS, INC., priority 2010, dated 2025):
In brackets after ≈: the same amount, converted by molar mass. Where a name gives a salt, the structure may show the parent alone. Read-outs that look alike come from different tables or passages of the source. Values belong to the molecule of their own block, whether it stands above or below them.

Key:
[1] = Metabolic stability in human liver microsomes; conditions: human, liver microsomes, pH 7.4
[2] = Metabolic stability in dog liver microsomes; type: in vitro ADME; conditions: dog, pH 7.4
[3] = Metabolic stability in guinea pig liver microsomes; type: in vitro ADME; conditions: pH 7.4, phase I pathway, read-out: T ½ (min), guinea pig liver microsomes
[4] = Metabolic stability in mouse liver microsomes; type: in vitro ADME; conditions: mouse, liver microsomes
[5] = Metabolic stability in rat liver microsomes; type: in vitro ADME; conditions: rat, liver microsomes, pH 7.4; phase I pathway; read-out: T ½ (min), rat liver microsomes
[6] = Metabolic stability in rabbit liver microsomes; type: in vitro ADME; conditions: pH 7.4, phase I pathway, read-out: T ½ (min), rabbit liver microsomes
[7] = Metabolic stability in hamster liver microsomes; type: in vitro ADME; conditions: pH 7.4, phase I pathway, read-out: T ½ (min), hamster liver microsomes
MES-SA/DX5 = test: SRB growth inhibition assay, P-gp over-expressing MES-SA/DX5 cells; type: cell-based; conditions: ratio of IC50 MES-SA/DX5 to MES-SA
[8] = Metabolic stability in monkey liver microsomes; type: in vitro ADME; conditions: monkey, pH 7.4
in vivo = conditions: male, ICR, mouse, plasma, 5 mg/kg; for Vd / clearance: iv
PC-3/TxR tumors = conditions: for tumor growth inhibition (TGI): day 1 and 9
[9] = Brain penetration (brain and plasma concentrations) in nude mice; conditions: IP 10 mpk, mean ± SD
A375 = test: SRB cytotoxicity assay, A375 human melanoma cells; type: cell-based; conditions: Homo sapiens, A-375, 48 h, read-out: IC50 ± SEM A375
WM-164 = test: SRB cytotoxicity assay, WM-164 human melanoma cells; type: cell-based; conditions: read-out: IC50 ± SEM WM164 (converted)
B16-F1 = test: SRB cytotoxicity assay, B16-F1 mouse melanoma cells; type: cell-based; conditions: read-out: IC50 ± SEM B16-F1 (converted)
PPC-1 = test: SRB cytotoxicity assay, PPC-1 prostate cancer cells; type: cell-based, human; conditions: Homo sapiens, PPC-1
Description: (§1) Cells were stained with SRB solution.

DU145/TXR = test: SRB growth inhibition, paclitaxel-resistant DU145/TXR cells; type: cell-based; conditions: Homo sapiens, DU-145; Table 13A; read-out: inhibitory effects DU145/TXR
DU 145 = test: SRB cytotoxicity assay, DU 145 prostate cancer cells; type: cell-based; conditions: Homo sapiens
Description: as §1

PC-3 = test: SRB cytotoxicity assay, PC-3 prostate cancer cells; type: cell-based, human; conditions: Homo sapiens, PC-3
Description: as §1

PC-3/TxR = test: cells; conditions: Homo sapiens, PC3-TxR, read-out: inhibitory effects PC3/TXR
LNCaP = test: SRB cytotoxicity assay, LNCaP prostate cancer cells; type: cell-based, human; conditions: Homo sapiens, LNCaP
Description: as §1

[10] = Water solubility, 48 h shaking in water, LC-MS; type: physicochemical
Procedure: Determination of water solubility. […] The suspension was centrifuged at 10,000 rpm for 10 min and filtered on 0.22 μm filter. Concentrations of each compound were measured by LC-MS, consisting of an HP S1100 HPLC instrument (Agilent, Foster ceity, CA) and a Bruker ESQUIRE MS detector with electrospray/ion trap instrument in positive ion mode (Bruker, Fremont, CA). For HPLC, a reverse phase Nova-pak C18 column (150 mm×3.9 mm, Waters, Milford, MA) was used. The mobile phase was composed of 20:80 v/v water/acetonitrile. […] The concentration of each compound was calculated by MS peak area according to the following calibration equation: y=1.3295x+114.24 (R^2=1.00). […] The amount (ng) in each injection was plotted again its relative mass peak area to generate the standard curve in FIG. 17.

[11] = test system: melanoma and prostate cancer cell lines; test: SRB cytotoxicity, summary or average over melanoma and prostate cancer cell lines; type: cell-based; conditions: average of all seven cell lines
WM-164 melanoma cells = test: Microtubule imaging (immunofluorescence) in WM-164 melanoma cells; type: cell-based, human; conditions: 18 h
Description: Primary antibody for tubulin and fluorescence-labeled secondary antibody were subsequently added to the cells. Cell nuclei were stained by DAPI. Whole Cell Stain Green was also applied to all cells. All images were acquired with an Olympus IX71 inverted fluorescence microscope (Olympus Corp., Tokyo, Japan) with overlays from separate images of tubulin (red), nuclei (blue), and whole cells (green).

Bovine brain tubulin = test: In vitro tubulin polymerization assay (bovine brain tubulin); type: biochemical; conditions: 10 μM, 20 min incubation, versus vehicle
[12] = dog liver microsomes, Table 20, read-out: Half life in Dog liver microsome
[13] = liver microsomes, phase I pathway, read-out: T ½ (min), dog liver microsomes
[14] = pH 7.4, Table 20, read-out: Half life in Mouse liver microsome
[15] = pH 7.4, phase I pathway, read-out: T ½ (min), mouse liver microsomes
[16] = liver microsomes, phase I pathway, read-out: T ½ (min), monkey liver microsomes
[17] = monkey liver microsomes, Table 20, read-out: Half life in Monkey liver microsome
[18] = PC-3/TxR xenograft, IV 10 mpk, day 1 and 9, end point day 19
[19] = Table 13A, read-out: inhibitory effects PPC1
[20] = Table 13A, read-out: inhibitory effects DU145
[21] = Table 13A, read-out: inhibitory effects PC3
[22] = Table 13A, read-out: inhibitory effects LNCaP

Compound: COc1cc(-c2nccc3ccc(-c4ccc5[nH]ccc5c4)cc23)cc(OC)c1OC [6a]
half-life at 0.5 μM [1]: 32 min
half-life at 0.5 μM [2, 12]: 13 min
half-life at 0.5 μM [2, 13]: 13 min
half-life at 0.5 μM [3]: 15 min
half-life at 0.5 μM [4, 14]: 3.43 min
half-life at 0.5 μM [4, 15]: 3.4 min
half-life at 0.5 μM [5]: 12 min
half-life at 0.5 μM [6]: 17 min
half-life at 0.5 μM [7]: 6 min
Resistance factor (MES-SA/DX5): 1.5
half-life at 0.5 μM [8, 16]: 16 min
half-life at 0.5 μM [8, 17]: 16 min
AUC (in vivo; ip): 983 ng·h/mL
Cmax (in vivo; ip): 678 ng/mL
bioavailability (in vivo; ip): 60%
Vd (in vivo): 2.3 L/kg
clearance (in vivo): 51 mL/min/kg
AUC (in vivo; po): 83.3 ng·h/mL
Cmax (in vivo; po): 6.7 ng/mL
bioavailability (in vivo; po): 5%

Compound: CC(=O)O[C@@]12CO[C@@H]1C[C@H](O)[C@@]1(C)C(=O)[C@H](O)C3=C(C)[C@@H](OC(=O)[C@H](O)[C@@H](NC(=O)OC(C)(C)C)c4ccccc4)C[C@@](O)([C@@H](OC(=O)c4ccccc4)[C@H]21)C3(C)C [docetaxel, Docetaxel]
TGI (PC-3/TxR tumors; [18]): 14%
Tumor size End (PC-3/TxR tumors; [18]): 1774 ± 183 mm^3
TGI (PC-3/TxR tumors; PC-3/TxR xenograft, IV 20 mpk, day 1 and 9, end point day 19): 56%
tumor growth inhibition (TGI) (PC-3/TxR tumors; i.v. 10 mg/kg): 14%
tumor growth inhibition (TGI) (PC-3/TxR tumors; i.v. 20 mg/kg): 56%
Brain ([9]; 1 hr): 33 ± 14 ng/mL
Plasma ([9]; 1 hr): 768 ± 92 ng/mL
Brain ([9]; 4 hr): 20 ± 9 ng/mL
Plasma ([9]; 4 hr): 345 ± 94 ng/mL

Compound: COc1cc(-c2nc(C(=O)c3ccc(F)cc3)c[nH]2)cc(OC)c1OC [12eb, (4-fluorophenyl)(2-(3,4,5-trimethoxyphenyl)-1H-imidazol-4-yl)methanone]
IC50 (A375; Table 12, 48 h): > 10000 nM
IC50 (WM-164; Homo sapiens, WM164, 48 h, Table 12, 48 h): > 10000 nM
IC50 (B16-F1; Mus musculus, B16-F1, 48 h, Table 12, 48 h): > 10000 nM

IC50 (DU145/TXR): 111 nM
IC50 (PC-3/TxR): 25 nM
Compound: COc1ccc(-c2c[nH]c(C(=O)c3cc(OC)c(OC)c(OC)c3)n2)cc1 [70g, (4-(4-methoxyphenyl)-1H-imidazol-2-yl)(3,4,5-trimethoxyphenyl)methanone]
IC50 (PPC-1; [19]): 54 nM
IC50 (DU 145; [20]): 210 nM
IC50 (PC-3; [21]): 61 nM

half-life at 0.5 μM [1]: 47 min
half-life at 0.5 μM [2, 12]: 29 min
half-life at 0.5 μM [2, 13]: 29 min
half-life at 0.5 μM [3]: 8 min
half-life at 0.5 μM [4, 14]: 13 min
half-life at 0.5 μM [4, 15]: 13 min
half-life at 0.5 μM [5]: 14 min
half-life at 0.5 μM [6]: 16 min
half-life at 0.5 μM [7]: 20 min
half-life at 0.5 μM [8, 16]: 9 min
half-life at 0.5 μM [8, 17]: 9 min
AUC (in vivo; ip): 917 ng·h/mL
Cmax (in vivo; ip): 1100 ng/mL
bioavailability (in vivo; ip): 33%
Vd (in vivo): 1.8 L/kg
clearance (in vivo): 30 mL/min/kg
AUC (in vivo; po): 66.7 ng·h/mL
Cmax (in vivo; po): 50 ng/mL
bioavailability (in vivo; po): 2.7%
Compound: Fc1ccc(-c2nccc3ccc(-c4ccc5[nH]ccc5c4)cc23)cc1 [6c, 1-(4-Fluoro-phenyl)-7-(1H-indol-5-yl)-isoquinoline]

IC50 (DU145/TXR): 202 nM
IC50 (PC-3/TxR): 46 nM
Compound: COc1cc(C(=O)c2nc(-c3ccc(C(F)(F)F)cc3)c[nH]2)cc(OC)c1OC [70e, (4-(4-(trifluoromethyl)phenyl)-1H-imidazol-2-yl)(3,4,5-trimethoxyphenyl)methanone]
IC50 (PPC-1; [19]): 75 nM
IC50 (DU 145; [20]): 210 nM
IC50 (LNCaP; [22]): 47 nM
IC50 (PC-3; [21]): 93 nM

Compound: COc1cc(C(=O)c2c[nH]c(-c3ccc(N(C)C)cc3)n2)cc(OC)c1OC [12ga, (2-(4-(dimethylamino)phenyl)-1H-imidazol-4-yl)(3,4,5-trimethoxyphenyl)methanone]
water solubility, times greater than thiazole counterpart [10]: about 200 times
solubility at 48 h ([10]; thermodynamic from solid, water, 48 h, RT): 13 µg/mL (≈ 34.1 µM)
IC50 [11]: 131 nM

Compound: COc1ccc(S(=O)(=O)Nc2cccnc2Nc2ccc(O)cc2)cc1 [ABT-751, reference compound]
effect on microtubules (WM-164 melanoma cells): microtubule fragmentation

Compound: O=C(c1cccc(F)c1)c1cn(S(=O)(=O)c2ccccc2)c(-c2ccccc2)n1 [11ag, (3-fluorophenyl)(2-phenyl-1-(phenylsulfonyl)-1H-imidazol-4-yl)methanone]
IC50 (A375; Table 13, 48 h): > 10000 nM
IC50 (WM-164; Homo sapiens, WM164, 48 h, Table 13, 48 h): > 10000 nM
IC50 (PPC-1; Table 13, 96 h, read-out: IC50 ± SEM PPC-1): > 10000 nM
IC50 (DU 145; Table 13, 96 h, read-out: IC50 ± SEM Du 145): > 10000 nM
IC50 (LNCaP; Table 13, 96 h, read-out: IC50 ± SEM LNCaP): > 10000 nM
IC50 (B16-F1; Mus musculus, B16-F1, 48 h, Table 13, 48 h): > 10000 nM
IC50 (PC-3; Table 13, 96 h, read-out: IC50 ± SEM PC-3): > 10000 nM

Compound: Cc1ccc(-c2nc(C(=O)c3ccc(F)cc3)c[nH]2)cc1 [12db-HCl, (4-fluorophenyl)(2-(p-tolyl)-1H-imidazol-4-yl)methanone hydrochloride]
IC50 (WM-164; Table 12, 48 h, hydrochloride): 112 nM
IC50 (B16-F1; Table 12, 48 h, hydrochloride): 297 nM

IC50 (PC-3/TxR): 25 nM
Compound: COc1cc(C(=O)c2nc(-c3ccc(Cl)cc3)c[nH]2)cc(OC)c1OC [70c, (4-(4-chlorophenyl)-1H-imidazol-2-yl)(3,4,5-trimethoxyphenyl)methanone]
IC50 (PPC-1; [19]): 51 nM
IC50 (DU 145; [20]): 125 nM
IC50 (LNCaP; [22]): 22 nM
IC50 (PC-3; [21]): 64 nM

Compound: c1cc2ccc(-c3ccc4[nH]ccc4c3)cc2c(-c2ccc3[nH]ccc3c2)n1 [6b, 1,7-Bis-(1H-indol-5-yl)-isoquinoline]
half-life at 0.5 μM [1]: 40 min
half-life at 0.5 μM [2, 12]: 30 min
half-life at 0.5 μM [2, 13]: 30 min
half-life at 0.5 μM [3]: 15 min
half-life at 0.5 μM [4, 14]: 10 min
half-life at 0.5 μM [4, 15]: 10 min
half-life at 0.5 μM [5]: 9 min
half-life at 0.5 μM [6]: 16 min
half-life at 0.5 μM [7]: 11 min
Resistance factor (MES-SA/DX5): 1.4
half-life at 0.5 μM [8, 16]: 13 min
half-life at 0.5 μM [8, 17]: 13 min
AUC (in vivo; ip): 3630 ng·h/mL
Cmax (in vivo; ip): 1500 ng/mL
bioavailability (in vivo; ip): 60%
Vd (in vivo): 1.1 L/kg
clearance (in vivo): 14 mL/min/kg
AUC (in vivo; po): 117 ng·h/mL
Cmax (in vivo; po): 50 ng/mL
bioavailability (in vivo; po): 2.1%

water solubility ([10]; water, 48 h, RT): 0.072 µg/mL (≈ 0.181 µM)
Compound: COc1cc(C(=O)c2csc(-c3ccc(N(C)C)cc3)n2)cc(OC)c1OC [corresponding thiazole analog]

Compound: COc1cc(C(=O)c2cccc(-c3ccccc3)n2)cc(OC)c1OC [1c, (6-Phenylpyridin-2-yl)(3,4,5-trimethoxyphenyl)methanone]
inhibition of tubulin polymerization (Bovine brain tubulin): 64%
